Test systems include A498; A549; COLO 205; HCT-15; HL-60; HOP-62; HOP-92; KM12; LOX IMVI; MDA-MB-231; MDA-MB-435; NCI-H226; NCI-H460; NCI/ADR-RES; RPMI-8226; SF-295; SN12C; TK-10; Malme-3M.
What all share (experiment): NCI tumour cell line growth inhibition, 48 h

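In this assay, cells in 96-well plates receive the compound at five concentrations for 48 hours. Endpoints are linearly interpolated between the surrounding concentrations. At the GI50, growth is halved.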 The source made the active and inactive calls. Cut-off read from the data, not from the text of the source: active = GI50 up to about 1.1 µM and inactive = higher. Where a SMILES comes first, the peptide text is derived from it. The star is where a group is joined. Fmoc = O=C(OCC1c2ccccc2-c2ccccc21)*; Boc = CC(C)(C)OC(=O)*

Turning to `COC(=O)C1(Cc2ccc3c(c2)CCC3)Cc2cc3c(cc2C1)CCC3`, the GI50 was 35.2 µM (inactive) in the test on A498; 28.6 µM (inactive) in the test on A549; 38.5 µM (inactive) with COLO 205; 31.6 µM in the test with HCT-15; 36.9 µM (inactive) in the test on HL-60; > 100 µM (inactive) in the test with HOP-62. Besides, the GI50 is 25.8 µM (inactive) in the test on HOP-92; 33.2 µM (inactive) in the test on KM12; 18.7 µM (inactive) in the test with LOX IMVI; 22.9 µM (inactive) with MDA-MB-231; 39 µM (inactive) in the test on MDA-MB-435; 33.7 µM (inactive) with NCI-H226. The GI50 is 35 µM (inactive) in the test on NCI-H460; 59.8 µM (inactive) in the test with NCI/ADR-RES; 53 µM (inactive) in the test with RPMI-8226; 33.3 µM (inactive) in the test on SF-295; 50.5 µM (inactive) in the test with SN12C; > 100 µM (inactive) in the test with TK-10.

For `C(=C\c1cc[n+](CCc2ccccc2)cc1)/c1ccccc1`, the GI50 with A549 is 5.64 µM (inactive); in the test with COLO 205, 5.73 µM (inactive); with HCT-15 it was greater than 100 µM; in the test with HOP-62, 12.6 µM (inactive); in the test with HOP-92 it was 24.7 µM (inactive); in the test with KM12 it was 3.98 µM (inactive). The GI50 in the test on LOX IMVI was 17.5 µM (inactive); in the test with MDA-MB-231, 12.6 µM (inactive); with MDA-MB-435, 4.98 µM (inactive); in the test on Malme-3M, 11.2 µM (inactive); in the test on NCI-H226 it was 13.8 µM (inactive); in the test with NCI-H460, 8.69 µM (inactive). Besides, the GI50 in the test with NCI/ADR-RES is > 100 µM (inactive); in the test with RPMI-8226, 5.45 µM (inactive); in the test with SF-295 it was 24.9 µM (inactive); with SN12C it was 4.02 µM (inactive); in the test with TK-10, 21.5 µM (inactive).

Regarding `Cc1nc(Nc2nc3ccccc3[nH]2)[nH]c(=O)c1CCO`, the GI50 in the test with A498 was > 100 µM (inactive); in the test on A549, > 100 µM (inactive); in the test on COLO 205, > 59.8 µM (inactive); in the test with HCT-15, 61.9 µM; in the test on HL-60 it was 75.9 µM (inactive); in the test with HOP-62, > 100 µM (inactive). Besides, the GI50 in the test on HOP-92 is 55.3 µM (inactive); with KM12, > 100 µM (inactive); in the test with LOX IMVI, 44.8 µM (inactive); in the test with MDA-MB-231, 27.4 µM (inactive); with MDA-MB-435 it was > 100 µM (inactive); in the test with Malme-3M, 25.6 µM (inactive). For the same compound, the GI50 with NCI-H226 is 26.6 µM (inactive); in the test on NCI-H460, 34.6 µM (inactive); in the test on NCI/ADR-RES, > 100 µM (inactive); with SF-295, > 100 µM (inactive); in the test on SN12C it was > 91.6 µM (inactive); in the test on TK-10 it was 39.4 µM (inactive).

For the compound `O=C1Nc2nccnc2C(=O)N2CCC[C@@H]12`, the GI50 with A549 is > 100 µM (inactive); in the test with COLO 205, > 100 µM (inactive); in the test with HCT-15 it was greater than 100 µM; in the test with HL-60, > 100 µM (inactive); in the test on HOP-62, > 100 µM (inactive); in the test with HOP-92 it was > 100 µM (inactive). Besides, the GI50 in the test with KM12, in the test with LOX IMVI, in the test with MDA-MB-231, with MDA-MB-435, with Malme-3M and in the test with NCI-H226 was > 100 µM (inactive) throughout. For the same compound, the GI50 in the test with NCI-H460, in the test on NCI/ADR-RES, in the test with RPMI-8226, in the test with SF-295, with SN12C and with TK-10 was > 100 µM (inactive) throughout.

As to `Nc1ccc2nc3c(nc2c1)C(=O)c1ccccc1-3`, the GI50 in the test with A549 is > 100 µM (inactive); in the test with COLO 205 it was > 100 µM (inactive); in the test on HCT-15 it was greater than 100 µM; in the test with HL-60, > 100 µM (inactive); with HOP-62, > 100 µM (inactive); with HOP-92, > 100 µM (inactive). Further, the GI50 is > 100 µM (inactive) in the test with KM12; > 100 µM (inactive) in the test on MDA-MB-231; > 100 µM (inactive) in the test with MDA-MB-435; > 100 µM (inactive) with Malme-3M; 29 µM (inactive) with NCI-H226; 69.2 µM (inactive) with NCI-H460. The GI50 in the test with NCI/ADR-RES, with RPMI-8226, in the test with SF-295, in the test on SN12C and with TK-10 was > 100 µM (inactive) in each case.

`CN(C)CCOc1ccc(-c2c(Oc3ccccc3)c(=O)oc3ccccc23)cc1`: the GI50 was 13.4 µM (inactive) with A498; 4.15 µM (inactive) in the test on A549; 11 µM (inactive) in the test with COLO 205; 10.3 µM with HCT-15; 17.2 µM (inactive) in the test with HOP-92; 21.4 µM (inactive) in the test with KM12. Further, the GI50 in the test with LOX IMVI was 13.1 µM (inactive); with MDA-MB-231, 4.93 µM (inactive); in the test with MDA-MB-435 it was 4.89 µM (inactive); in the test on Malme-3M it was 12.2 µM (inactive); in the test with NCI-H226, 16 µM (inactive); in the test with NCI-H460 it was 13.5 µM (inactive). In addition, the GI50 with NCI/ADR-RES was 11.2 µM (inactive); in the test on RPMI-8226, 14.1 µM (inactive); with SF-295, 4.42 µM (inactive); with SN12C it was 14 µM (inactive); with TK-10, 13.6 µM (inactive).

As for `CC(C)(C)OC(=O)NCCCCC(NC(=O)OCC1c2ccccc2-c2ccccc21)C(=O)N1CCCC1C(=O)NCC(N)=O` (stereo not drawn) (Fmoc-Lys(Boc)-Pro-Gly-NH2; configuration not given here), the GI50 with A549 was 51.4 µM (inactive); with COLO 205 it was 28.4 µM (inactive); in the test on HCT-15, 16.1 µM; in the test on HL-60, 32.8 µM (inactive); in the test on HOP-62 it was 89.1 µM (inactive); with HOP-92, 20.4 µM (inactive). Besides, the GI50 with KM12 is 20.7 µM (inactive); in the test on LOX IMVI, 21.3 µM (inactive); with MDA-MB-231, 46.7 µM (inactive); in the test with MDA-MB-435, 27.6 µM (inactive); with Malme-3M it was 18.3 µM (inactive); in the test with NCI-H226 it was > 100 µM (inactive). Besides, the GI50 with NCI-H460 is 20.3 µM (inactive); in the test on NCI/ADR-RES, 33.4 µM (inactive); in the test on RPMI-8226 it was 50.7 µM (inactive); with SF-295, 78.3 µM (inactive); in the test on SN12C, 16.2 µM (inactive); with TK-10 it was > 100 µM (inactive).

As for `Cn1c2c3ccccc3nc-2c(O)c2ccccc21` [HYDROXYCRYPTOLEPINE], the GI50 was > 100 µM (inactive) with A498; > 100 µM (inactive) in the test with A549; 83.2 µM (inactive) in the test with COLO 205; 53.3 µM with HCT-15; > 100 µM (inactive) in the test with HOP-62; > 100 µM (inactive) with HOP-92. Moreover, the GI50 was > 100 µM (inactive) with KM12; > 100 µM (inactive) in the test on LOX IMVI; 85.9 µM (inactive) in the test with MDA-MB-231; > 100 µM (inactive) with MDA-MB-435; > 100 µM (inactive) in the test with Malme-3M; > 100 µM (inactive) in the test on NCI-H226. Moreover, the GI50 in the test on NCI-H460 is 59.2 µM (inactive); in the test with NCI/ADR-RES, > 100 µM (inactive); in the test with RPMI-8226 it was 45.7 µM (inactive); with SF-295, > 100 µM (inactive); in the test with SN12C, 48.2 µM (inactive); in the test on TK-10 it was > 100 µM (inactive).

Take `CN1CC[C@]23c4c5ccc(O)c4OC2c2[nH]ncc2C[C@H]3[C@H]1C5` (some centres not stated): the GI50 in the test on A549 was > 100 µM (inactive); with COLO 205, > 100 µM (inactive); in the test on HCT-15, greater than 100 µM; with HL-60 it was > 100 µM (inactive); in the test with HOP-62, > 100 µM (inactive); in the test on HOP-92, > 100 µM (inactive). Also, the GI50 with KM12, with LOX IMVI, in the test with MDA-MB-231, in the test with MDA-MB-435, with Malme-3M and in the test on NCI-H226 was > 100 µM (inactive) in each case. Besides, the GI50 in the test with NCI-H460, in the test with NCI/ADR-RES, in the test with RPMI-8226, in the test with SF-295, in the test on SN12C and in the test on TK-10 was > 100 µM (inactive) each time.

Take `NC(=S)N/N=C1\C(=O)Nc2c(Cl)cc(Cl)cc21`: the GI50 is 32.4 µM (inactive) with A498; 31.3 µM (inactive) in the test on A549; 20.2 µM (inactive) in the test on COLO 205; 24.8 µM with HCT-15; 12.4 µM (inactive) in the test on HL-60; 13 µM (inactive) in the test on HOP-62. Also, the GI50 was 72.1 µM (inactive) with HOP-92; 18.9 µM (inactive) in the test with KM12; 18.3 µM (inactive) in the test with LOX IMVI; 22.9 µM (inactive) in the test with MDA-MB-231; 16.7 µM (inactive) with MDA-MB-435; 16.2 µM (inactive) in the test on Malme-3M. Further, the GI50 was 15.7 µM (inactive) in the test with NCI-H226; 17.1 µM (inactive) in the test on NCI-H460; 17.8 µM (inactive) in the test on NCI/ADR-RES; 19.2 µM (inactive) with SF-295; 19.5 µM (inactive) with SN12C; 73.1 µM (inactive) with TK-10.

As for `COC1OC(Cn2c(C)nc(Br)c2Br)C(O)C(O)C1O` (configuration not stated), the GI50 with A498 is > 100 µM (inactive); in the test on A549, > 100 µM (inactive); with COLO 205, > 100 µM (inactive); with HCT-15, greater than 100 µM; in the test on HOP-62, > 100 µM (inactive); in the test on HOP-92, > 100 µM (inactive). Also, the GI50 in the test with KM12, in the test on MDA-MB-231, with MDA-MB-435, in the test with Malme-3M, in the test with NCI-H460 and in the test on NCI/ADR-RES was > 100 µM (inactive) throughout. Moreover, the GI50 in the test with RPMI-8226 and in the test with SF-295 was > 100 µM (inactive) throughout.

Take `CC(C(=O)NCNC(=O)c1ccccc1)C(=O)NCc1ccccc1` (configuration not stated): the GI50 in the test with A549 was > 100 µM (inactive); in the test on COLO 205, > 100 µM (inactive); with HCT-15, greater than 100 µM; in the test with HL-60, > 100 µM (inactive); with HOP-92, > 100 µM (inactive); in the test on KM12, > 100 µM (inactive). Moreover, the GI50 with MDA-MB-231, in the test on MDA-MB-435, in the test with Malme-3M, in the test on NCI-H226, with NCI-H460 and in the test with NCI/ADR-RES was > 100 µM (inactive) in each case. Moreover, the GI50 in the test with RPMI-8226, in the test on SF-295, in the test on SN12C and in the test on TK-10 was > 100 µM (inactive) each time.
